Reference: patent US20080200682A1, “Process of Producing Bleach Boosters” (BASF Aktiengesellschaft, priority 2005, published 2008)
Where a name gives a salt, the structure may show the parent alone.

Experiments:
Format in all cases: biochemical
[1] = biological target: T1, Termamyl (amylase enzyme) (Bacillus licheniformis, UniProt P06278)
T1 construct: purchased Novozymes, Denmark

[2] = test system: Amylase enzymes: Termamyl, Natalase, and Duramyl; experiment: Organic Catalyst/Enzyme Compatibility Test, average ECV of the three enzymes; conditions: ECV=(ECVter+ECVdur+ECVnat)/3; [Peracetic Acid]=5.0 ppm; [organic catalyst]=0.5 ppm
[3] = test system: Natalase (amylase enzyme); experiment: Organic Catalyst/Enzyme Compatibility Test (alpha amylase activity assay), Natalase; conditions: (Ac/Ab)x100 for Natalase; [Peracetic Acid]=5.0 ppm; [organic catalyst]=0.5 ppm; detergent solution, 40° C.
Duramyl (amylase enzyme) = experiment: Organic Catalyst/Enzyme Compatibility Test (alpha amylase activity assay), Duramyl; conditions: (Ac/Ab)x100 for Duramyl; [Peracetic Acid]=5.0 ppm; [organic catalyst]=0.5 ppm; detergent solution, 40° C.

T1 sequence (P06278 30-512): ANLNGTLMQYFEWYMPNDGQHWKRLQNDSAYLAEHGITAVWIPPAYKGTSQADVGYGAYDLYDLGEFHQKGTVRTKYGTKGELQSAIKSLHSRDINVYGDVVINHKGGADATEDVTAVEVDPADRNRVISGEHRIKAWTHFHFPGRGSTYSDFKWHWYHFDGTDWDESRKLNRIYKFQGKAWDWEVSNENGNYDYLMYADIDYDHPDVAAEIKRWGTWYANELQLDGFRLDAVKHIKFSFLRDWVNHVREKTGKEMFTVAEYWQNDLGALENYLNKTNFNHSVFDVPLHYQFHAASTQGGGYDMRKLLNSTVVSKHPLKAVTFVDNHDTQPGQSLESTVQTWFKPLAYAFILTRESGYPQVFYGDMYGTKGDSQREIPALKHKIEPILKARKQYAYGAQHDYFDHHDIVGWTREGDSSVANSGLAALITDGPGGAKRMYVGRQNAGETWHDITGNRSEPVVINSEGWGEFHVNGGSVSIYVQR

| Compound | Enzyme Compatibility Values ECVter [1] | Enzyme Compatibility Values ECV [2] | Enzyme Compatibility Values ECVnat [3] | Enzyme Compatibility Values ECVdur (Duramyl (amylase enzyme)) |
| --- | --- | --- | --- | --- |
| CCCCC(CC)COCC(C[N+]1=Cc2ccccc2CC1)OS(=O)(=O)[O-] (stereo not drawn) [Entry 2, reference compound] | 54 | 67 | 57 | 90 |
| CCCCCC(CCC)COCC(C[N+]1=Cc2ccccc2CC1)OS(=O)(=O)[O-] (stereo not drawn) [Entry 3, Sulfuric acid mono-[2-(3,4-dihydro-isoquinolin-2-yl)-1-(2-propylheptyloxymethyl)-ethyl]ester, internal salt] | 98 | 99 | 99 | 101 |
| CCCCCCC(CCCC)COCC(C[N+]1=Cc2ccccc2CC1)OS(=O)(=O)[O-] (stereo not drawn) [Entry 4, Sulfuric acid mono-[2-(3,4-dihydro-isoquinolin-2-yl)-1-(2-butyl-octyloxymethyl)-ethyl]ester, internal salt] | 101 | 101 | 102 | 101 |
| Sulfuric acid mono-[2-(3,4-dihydro-isoquinolin-2-yl)-1-(iso-decyloxymethyl)-ethyl]ester, internal salt [Entry 7] | 98 | 97 | 96 | 97 |
| Sulfuric acid mono-[2-(3,4-dihydro-isoquinolin-2-yl)-1-(iso-nonyloxymethyl)-ethyl]ester, internal salt [Entry 6] | 86 | 90 | 88 | 96 |
| Sulfuric acid mono-[2-(3,4-dihydro-isoquinolin-2-yl)-1-(iso-tridecyloxymethyl)-ethyl]ester, internal salt [Entry 8] | 99 | 100 | 101 | 100 |
